Assay results as given in ChEMBL document CHEMBL4507261, “Data for DCP probe A-192621” (2021).

Tests used:
[1] = system: Epidermal growth factor receptor (Homo sapiens), P00533 [UNDEFINED MUTATION]; settings: Compound concentration 1000.0 nM
[2] = target: Serine/threonine-protein kinase 25 (Homo sapiens) (UniProt O00506); settings: Compound concentration 1000.0 nM
[3] = target: Mitogen-activated protein kinase kinase kinase 6 (Homo sapiens) (UniProt O95382); settings: Compound concentration 1000.0 nM
[4] = target: Ephrin type-B receptor 4 (Homo sapiens) (UniProt P54760); settings: Compound concentration 1000.0 nM
[5] = target: Serine/threonine-protein kinase Sgk2 (Homo sapiens) (UniProt Q9HBY8); settings: Compound concentration 1000.0 nM
[6] = target: Histamine H1 receptor (Homo sapiens) (UniProt P35367); assay: H1 (h) Eurofins-Cerep binding assay; set-up: ligand concentration 1 nM; settings: filed as antagonist, Compound concentration 10.0 uM
[7] = target: Serine/threonine-protein kinase Sgk1 (Homo sapiens) (UniProt O00141); settings: Compound concentration 1000.0 nM
[8] = target: Serine/threonine-protein kinase Nek6 (Homo sapiens) (UniProt Q9HC98); settings: Compound concentration 1000.0 nM
[9] = target: Mitogen-activated protein kinase 7 (Homo sapiens) (UniProt Q13164); settings: Compound concentration 1000.0 nM
[10] = target: Serine/threonine-protein kinase TAO1 (Homo sapiens) (UniProt Q7L7X3); settings: Compound concentration 1000.0 nM
[11] = target: Protein kinase C eta type (Homo sapiens) (UniProt P24723); settings: Compound concentration 1000.0 nM
[12] = target: Homeodomain-interacting protein kinase 2 (Homo sapiens) (UniProt Q9H2X6); settings: Compound concentration 1000.0 nM
[13] = target: Adenosine receptor A1 (Homo sapiens) (UniProt P30542); assay: A1 (h) Eurofins-Cerep binding assay; set-up: ligand concentration 1 nM; settings: filed as antagonist, Compound concentration 10.0 uM
[14] = target: Muscarinic acetylcholine receptor M1 (Homo sapiens) (UniProt P11229); assay: M1 (h) Eurofins-Cerep binding assay; set-up: ligand concentration 2 nM; settings: filed as antagonist, Compound concentration 10.0 uM
[15] = target: ALK tyrosine kinase receptor (Homo sapiens) (UniProt Q9UM73); settings: Compound concentration 1000.0 nM
[16] = target: Calcium/calmodulin-dependent protein kinase type 1D (Homo sapiens) (UniProt Q8IU85); settings: Compound concentration 1000.0 nM
[17] = target: Homeodomain-interacting protein kinase 4 (Homo sapiens) (UniProt Q8NE63); settings: Compound concentration 1000.0 nM
[18] = target: Beta-2 adrenergic receptor (Homo sapiens) (UniProt P07550); assay: Beta2 (h) Eurofins-Cerep binding assay; set-up: ligand concentration 0.3 nM; settings: filed as antagonist, Compound concentration 10.0 uM
[19] = target: Adenosine receptor A2b (Homo sapiens) (UniProt P29275); assay: A2B (h) Eurofins-Cerep binding assay; set-up: ligand concentration 5 nM; settings: filed as antagonist, Compound concentration 10.0 uM
[20] = target: Tyrosine-protein kinase ABL1 (Homo sapiens) (UniProt P00519); settings: Compound concentration 1000.0 nM
[21] = target: Dual specificity protein kinase CLK1 (Homo sapiens) (UniProt P49759); settings: Compound concentration 1000.0 nM
[22] = target: Serine/threonine-protein kinase TNNI3K (Homo sapiens) (UniProt Q59H18); settings: Compound concentration 1000.0 nM
[23] = system: Phosphatidylinositol 4,5-bisphosphate 3-kinase catalytic subunit alpha isoform (Homo sapiens), P42336 [M1043I]; settings: Compound concentration 1000.0 nM
[24] = target: Casein kinase I isoform delta (Homo sapiens) (UniProt P48730); settings: Compound concentration 1000.0 nM
[25] = target: Serine/threonine-protein kinase Nek3 (Homo sapiens) (UniProt P51956); settings: Compound concentration 1000.0 nM
[26] = target: Dual specificity protein kinase TTK (Homo sapiens) (UniProt P33981); settings: Compound concentration 1000.0 nM
[27] = target: Prostaglandin E2 receptor EP2 subtype (Homo sapiens) (UniProt P43116); assay: EP2 (h) Eurofins-Cerep binding assay; set-up: ligand concentration 3 nM; settings: filed as agonist, Compound concentration 10.0 uM
[28] = target: D(2) dopamine receptor (Homo sapiens) (UniProt P14416); assay: D2S (h) Eurofins-Cerep binding assay; set-up: ligand concentration 0.3 nM; settings: filed as antagonist, Compound concentration 10.0 uM
[29] = system: Proto-oncogene tyrosine-protein kinase receptor Ret (Homo sapiens), P07949 [V804M]; settings: Compound concentration 1000.0 nM
[30] = target: SRSF protein kinase 1 (Homo sapiens) (UniProt Q96SB4); settings: Compound concentration 1000.0 nM
[31] = target: Death-associated protein kinase 3 (Homo sapiens) (UniProt O43293); settings: Compound concentration 1000.0 nM
[32] = target: Activin receptor type-2B (Homo sapiens) (UniProt Q13705); settings: Compound concentration 1000.0 nM
[33] = target: Ribosomal protein S6 kinase beta-1 (Homo sapiens) (UniProt P23443); settings: Compound concentration 1000.0 nM
[34] = target: Ribosomal protein S6 kinase alpha-3 (Homo sapiens) (UniProt P51812); settings: Compound concentration 1000.0 nM
[35] = target: Phosphatidylinositol 4,5-bisphosphate 3-kinase catalytic subunit alpha isoform (Homo sapiens) (UniProt P42336); settings: Compound concentration 1000.0 nM
[36] = target: Serine/threonine-protein kinase PAK 1 (Homo sapiens) (UniProt Q13153); settings: Compound concentration 1000.0 nM
[37] = target: Tyrosine-protein kinase Lck (Homo sapiens) (UniProt P06239); settings: Compound concentration 1000.0 nM
[38] = target: Fibroblast growth factor receptor 2 (Homo sapiens) (UniProt P21802); settings: Compound concentration 1000.0 nM
[39] = target: Estrogen receptor (Homo sapiens) (UniProt P03372); assay: Estrogen ER alpha (h) Eurofins-Cerep binding assay; set-up: ligand concentration 0.5 nM; settings: filed as agonist, Compound concentration 10.0 uM
[40] = target: Aurora kinase A (Homo sapiens) (UniProt O14965); settings: Compound concentration 1000.0 nM
[41] = system: Fibroblast growth factor receptor 3 (Homo sapiens), P22607 [G697C]; settings: Compound concentration 1000.0 nM
[42] = target: Insulin receptor (Homo sapiens) (UniProt P06213); settings: Compound concentration 1000.0 nM
[43] = target: Cannabinoid receptor 2 (Homo sapiens) (UniProt P34972); assay: CB2 (h) Eurofins-Cerep binding assay; set-up: ligand concentration 0.8 nM; settings: filed as agonist, Compound concentration 10.0 uM
[44] = target: Mitogen-activated protein kinase 13 (Homo sapiens) (UniProt O15264); settings: Compound concentration 1000.0 nM
[45] = target: Sodium-dependent noradrenaline transporter (Homo sapiens) (UniProt P23975); assay: norepinephrine transporter (h) Eurofins-Cerep binding assay; settings: filed as antagonist, Compound concentration 10.0 uM
[46] = target: Serine/threonine-protein kinase 17B (Homo sapiens) (UniProt O94768); settings: Compound concentration 1000.0 nM

Death-associated protein kinase 3 (Homo sapiens), sequence (O43293 whole entry, looked up): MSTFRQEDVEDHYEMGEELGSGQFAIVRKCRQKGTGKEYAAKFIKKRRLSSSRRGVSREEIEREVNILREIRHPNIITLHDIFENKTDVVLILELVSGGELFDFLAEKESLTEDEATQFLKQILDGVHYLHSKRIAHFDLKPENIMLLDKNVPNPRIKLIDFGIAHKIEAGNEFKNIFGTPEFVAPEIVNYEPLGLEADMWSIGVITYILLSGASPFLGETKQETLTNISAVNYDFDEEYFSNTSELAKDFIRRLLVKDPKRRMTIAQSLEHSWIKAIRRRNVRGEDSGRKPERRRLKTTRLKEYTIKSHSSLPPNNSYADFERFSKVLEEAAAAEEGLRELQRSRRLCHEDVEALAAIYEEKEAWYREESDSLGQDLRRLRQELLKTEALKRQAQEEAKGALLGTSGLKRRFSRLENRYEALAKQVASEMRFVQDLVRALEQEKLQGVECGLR
Insulin receptor (Homo sapiens), sequence (P06213 28-758 limits assumed): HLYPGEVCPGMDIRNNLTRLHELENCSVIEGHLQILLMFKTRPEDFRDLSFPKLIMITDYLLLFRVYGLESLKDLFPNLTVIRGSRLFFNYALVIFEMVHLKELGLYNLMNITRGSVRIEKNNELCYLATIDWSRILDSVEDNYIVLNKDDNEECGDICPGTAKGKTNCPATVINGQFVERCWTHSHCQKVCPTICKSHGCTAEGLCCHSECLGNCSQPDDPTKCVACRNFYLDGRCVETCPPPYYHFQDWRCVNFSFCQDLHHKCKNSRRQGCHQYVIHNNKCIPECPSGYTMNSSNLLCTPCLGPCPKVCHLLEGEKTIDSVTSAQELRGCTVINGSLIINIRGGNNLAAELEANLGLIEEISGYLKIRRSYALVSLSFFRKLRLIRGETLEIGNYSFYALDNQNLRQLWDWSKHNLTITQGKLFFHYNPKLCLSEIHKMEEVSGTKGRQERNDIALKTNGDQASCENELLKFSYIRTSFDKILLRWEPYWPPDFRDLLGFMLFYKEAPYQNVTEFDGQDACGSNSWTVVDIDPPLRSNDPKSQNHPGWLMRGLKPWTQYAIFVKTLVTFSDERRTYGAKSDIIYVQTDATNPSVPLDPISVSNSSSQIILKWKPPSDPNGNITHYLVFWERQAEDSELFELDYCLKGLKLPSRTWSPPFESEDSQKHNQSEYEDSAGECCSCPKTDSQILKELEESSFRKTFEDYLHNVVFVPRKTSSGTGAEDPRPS
Insulin receptor (Homo sapiens), sequence (P06213 763-1382 limits assumed): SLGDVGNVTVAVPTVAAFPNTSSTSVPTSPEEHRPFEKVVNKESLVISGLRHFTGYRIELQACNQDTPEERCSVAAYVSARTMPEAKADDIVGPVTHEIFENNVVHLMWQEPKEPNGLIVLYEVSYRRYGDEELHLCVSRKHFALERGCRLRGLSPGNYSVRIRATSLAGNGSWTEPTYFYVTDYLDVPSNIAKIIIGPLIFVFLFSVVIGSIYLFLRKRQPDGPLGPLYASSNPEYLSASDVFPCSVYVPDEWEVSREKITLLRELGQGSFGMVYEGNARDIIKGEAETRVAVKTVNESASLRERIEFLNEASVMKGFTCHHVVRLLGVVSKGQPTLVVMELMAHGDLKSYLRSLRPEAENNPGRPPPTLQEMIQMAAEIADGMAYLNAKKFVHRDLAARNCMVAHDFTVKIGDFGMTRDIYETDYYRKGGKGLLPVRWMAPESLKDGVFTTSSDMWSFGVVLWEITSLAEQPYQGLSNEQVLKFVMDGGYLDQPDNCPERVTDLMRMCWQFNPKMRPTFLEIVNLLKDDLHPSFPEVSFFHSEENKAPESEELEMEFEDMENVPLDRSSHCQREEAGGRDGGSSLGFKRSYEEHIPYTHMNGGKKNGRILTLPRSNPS
Ephrin type-B receptor 4 (Homo sapiens), sequence (P54760 whole entry): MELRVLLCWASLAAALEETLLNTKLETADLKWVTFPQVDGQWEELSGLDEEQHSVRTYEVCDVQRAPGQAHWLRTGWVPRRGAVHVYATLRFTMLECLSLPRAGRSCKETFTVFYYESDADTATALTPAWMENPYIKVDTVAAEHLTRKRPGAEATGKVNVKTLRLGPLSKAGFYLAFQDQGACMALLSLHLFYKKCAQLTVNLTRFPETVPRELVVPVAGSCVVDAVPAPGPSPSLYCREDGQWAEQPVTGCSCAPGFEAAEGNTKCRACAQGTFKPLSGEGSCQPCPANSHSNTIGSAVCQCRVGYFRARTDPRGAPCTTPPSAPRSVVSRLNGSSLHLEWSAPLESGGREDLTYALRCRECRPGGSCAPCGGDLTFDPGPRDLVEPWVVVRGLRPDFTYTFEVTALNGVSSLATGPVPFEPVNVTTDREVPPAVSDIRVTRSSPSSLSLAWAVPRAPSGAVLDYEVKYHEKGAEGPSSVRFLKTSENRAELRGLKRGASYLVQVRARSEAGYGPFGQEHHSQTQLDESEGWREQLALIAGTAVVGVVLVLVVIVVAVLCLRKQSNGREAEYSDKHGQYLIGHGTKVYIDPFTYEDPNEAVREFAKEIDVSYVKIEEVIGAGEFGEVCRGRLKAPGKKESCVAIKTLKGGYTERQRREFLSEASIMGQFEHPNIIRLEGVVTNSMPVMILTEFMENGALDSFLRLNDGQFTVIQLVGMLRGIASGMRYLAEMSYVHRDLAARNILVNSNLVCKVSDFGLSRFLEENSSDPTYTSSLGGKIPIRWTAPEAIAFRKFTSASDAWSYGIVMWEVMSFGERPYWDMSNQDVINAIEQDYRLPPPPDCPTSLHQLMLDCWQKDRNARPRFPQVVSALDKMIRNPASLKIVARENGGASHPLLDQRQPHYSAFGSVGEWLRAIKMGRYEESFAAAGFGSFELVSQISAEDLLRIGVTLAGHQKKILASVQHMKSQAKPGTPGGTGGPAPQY
Histamine H1 receptor (Homo sapiens), sequence (P35367 whole entry): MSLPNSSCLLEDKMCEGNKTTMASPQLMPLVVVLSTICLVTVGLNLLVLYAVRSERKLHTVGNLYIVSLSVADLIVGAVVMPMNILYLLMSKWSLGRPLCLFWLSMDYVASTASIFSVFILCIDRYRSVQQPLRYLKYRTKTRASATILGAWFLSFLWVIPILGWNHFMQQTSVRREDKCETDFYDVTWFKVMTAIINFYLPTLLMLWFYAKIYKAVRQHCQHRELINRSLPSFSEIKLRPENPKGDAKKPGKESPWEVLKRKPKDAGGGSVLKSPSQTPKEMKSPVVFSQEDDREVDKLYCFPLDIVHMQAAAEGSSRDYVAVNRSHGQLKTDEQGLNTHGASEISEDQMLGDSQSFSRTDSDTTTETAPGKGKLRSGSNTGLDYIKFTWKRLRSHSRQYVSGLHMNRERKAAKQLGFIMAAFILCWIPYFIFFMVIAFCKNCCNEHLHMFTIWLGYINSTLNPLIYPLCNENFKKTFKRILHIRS
Tyrosine-protein kinase Lck (Homo sapiens), sequence (P06239 2-509 limits assumed): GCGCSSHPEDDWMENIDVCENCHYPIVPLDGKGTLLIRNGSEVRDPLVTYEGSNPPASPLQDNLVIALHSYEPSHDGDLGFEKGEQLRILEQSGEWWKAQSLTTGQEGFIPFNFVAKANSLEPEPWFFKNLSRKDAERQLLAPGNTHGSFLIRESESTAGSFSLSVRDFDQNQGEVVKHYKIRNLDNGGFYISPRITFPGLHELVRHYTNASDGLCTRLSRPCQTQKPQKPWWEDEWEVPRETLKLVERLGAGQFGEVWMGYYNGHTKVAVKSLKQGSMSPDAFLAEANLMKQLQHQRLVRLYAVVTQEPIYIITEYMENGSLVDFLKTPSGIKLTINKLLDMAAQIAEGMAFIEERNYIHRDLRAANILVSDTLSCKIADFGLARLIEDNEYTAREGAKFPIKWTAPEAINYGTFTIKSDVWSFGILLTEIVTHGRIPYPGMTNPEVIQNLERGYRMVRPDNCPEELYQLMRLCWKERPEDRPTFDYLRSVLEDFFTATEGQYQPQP
Serine/threonine-protein kinase 25 (Homo sapiens), sequence (O00506 whole entry, looked up): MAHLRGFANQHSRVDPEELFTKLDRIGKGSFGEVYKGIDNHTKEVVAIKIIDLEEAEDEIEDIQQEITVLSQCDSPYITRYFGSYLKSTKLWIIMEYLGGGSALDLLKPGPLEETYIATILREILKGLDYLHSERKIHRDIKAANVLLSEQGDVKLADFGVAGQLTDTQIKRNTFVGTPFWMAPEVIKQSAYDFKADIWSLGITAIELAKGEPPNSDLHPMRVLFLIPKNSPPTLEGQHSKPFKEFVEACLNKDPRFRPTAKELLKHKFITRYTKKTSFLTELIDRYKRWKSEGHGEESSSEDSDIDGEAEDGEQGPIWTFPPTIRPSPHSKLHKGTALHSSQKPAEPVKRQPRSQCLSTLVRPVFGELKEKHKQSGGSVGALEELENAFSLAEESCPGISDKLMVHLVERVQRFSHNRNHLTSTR
Dual specificity protein kinase CLK1 (Homo sapiens), sequence (P49759 whole entry, looked up): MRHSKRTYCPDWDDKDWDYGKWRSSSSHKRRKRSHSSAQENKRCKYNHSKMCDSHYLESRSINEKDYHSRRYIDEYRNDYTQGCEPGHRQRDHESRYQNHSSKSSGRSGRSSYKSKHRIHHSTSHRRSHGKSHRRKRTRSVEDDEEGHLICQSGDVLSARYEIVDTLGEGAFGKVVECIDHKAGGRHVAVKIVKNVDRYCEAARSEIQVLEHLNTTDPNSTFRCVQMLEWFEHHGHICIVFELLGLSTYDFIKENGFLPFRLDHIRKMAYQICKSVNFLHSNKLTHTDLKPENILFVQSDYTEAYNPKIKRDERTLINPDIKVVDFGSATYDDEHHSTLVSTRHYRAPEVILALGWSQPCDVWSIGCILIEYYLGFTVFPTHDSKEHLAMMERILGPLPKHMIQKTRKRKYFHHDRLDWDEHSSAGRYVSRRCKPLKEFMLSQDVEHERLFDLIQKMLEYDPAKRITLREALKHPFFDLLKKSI
Serine/threonine-protein kinase Nek6 (Homo sapiens), sequence (Q9HC98 whole entry): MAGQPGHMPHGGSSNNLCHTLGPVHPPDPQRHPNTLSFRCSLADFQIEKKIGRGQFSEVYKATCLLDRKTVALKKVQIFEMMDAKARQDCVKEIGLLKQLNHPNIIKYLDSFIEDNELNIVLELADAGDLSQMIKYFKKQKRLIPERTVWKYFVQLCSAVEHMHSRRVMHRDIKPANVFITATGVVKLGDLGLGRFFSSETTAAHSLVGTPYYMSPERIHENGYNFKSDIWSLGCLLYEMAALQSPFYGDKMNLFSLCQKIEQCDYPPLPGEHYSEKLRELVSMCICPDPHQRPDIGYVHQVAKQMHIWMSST

CCCOc1ccc([C@@H]2[C@@H](C(=O)O)[C@H](c3ccc4c(c3)OCO4)CN2CC(=O)Nc2c(CC)cccc2CC)cc1 [A-1806262]
residual activity [1]: 66% | residual activity [2]: 100% | residual activity [3]: 77% | residual activity [4]: 96% | residual activity [5]: 69% | % Inhibition of Control Specific Binding (Mean n=2) [6]: -10% | residual activity [7]: 75% | residual activity [8]: 92% | residual activity [9]: 93% | residual activity [10]: 100% | residual activity [11]: 100% | residual activity [12]: 80% | % Inhibition of Control Specific Binding (Mean n=2) [13]: 4.2% | % Inhibition of Control Specific Binding (Mean n=2) [14]: 3.7% | residual activity [15]: 100% | residual activity [16]: 97% | residual activity [17]: 65% | % Inhibition of Control Specific Binding (Mean n=2) [18]: 3.6% | % Inhibition of Control Specific Binding (Mean n=2) [19]: -8.6% | residual activity [20]: 80% | residual activity [21]: 93% | residual activity [22]: 84% | residual activity [23]: 91% | residual activity [24]: 83% | residual activity [25]: 100% | residual activity [26]: 100% | % Inhibition of Control Specific Binding (Mean n=2) [27]: 10.7% | % Inhibition of Control Specific Binding (Mean n=2) [28]: 1.8% | residual activity [29]: 94% | residual activity [30]: 94% | residual activity [31]: 79% | residual activity [32]: 96% | residual activity [33]: 79% | residual activity [34]: 95% | residual activity [35]: 84% | residual activity [36]: 98% | residual activity [37]: 100% | residual activity [38]: 100% | % Inhibition of Control Specific Binding (Mean n=2) [39]: -0.8% | residual activity [40]: 94% | residual activity [41]: 99% | residual activity [42]: 89% | % Inhibition of Control Specific Binding (Mean n=2) [43]: 14.6% | residual activity [44]: 100% | % Inhibition of Control Specific Binding (Mean n=2) [45]: 1.6% | residual activity [46]: 93%

CCCOc1ccc([C@H]2[C@H](C(=O)O)[C@@H](c3ccc4c(c3)OCO4)CN2CC(=O)Nc2c(CC)cccc2CC)cc1 [A-192621]
residual activity [1]: 89% | residual activity [2]: 100% | residual activity [3]: 65% | residual activity [4]: 100% | residual activity [5]: 54% | % Inhibition of Control Specific Binding (Mean n=2) [6]: -4.4% | residual activity [7]: 63% | residual activity [8]: 96% | residual activity [9]: 97% | residual activity [10]: 84% | residual activity [11]: 100% | residual activity [12]: 66% | % Inhibition of Control Specific Binding (Mean n=2) [13]: 8.3% | % Inhibition of Control Specific Binding (Mean n=2) [14]: -11.2% | residual activity [15]: 100% | residual activity [16]: 75% | residual activity [17]: 70% | % Inhibition of Control Specific Binding (Mean n=2) [18]: -0.2% | % Inhibition of Control Specific Binding (Mean n=2) [19]: -6.1% | residual activity [20]: 73% | residual activity [21]: 87% | residual activity [22]: 100% | residual activity [23]: 91% | residual activity [24]: 80% | residual activity [25]: 69% | residual activity [26]: 94% | % Inhibition of Control Specific Binding (Mean n=2) [27]: 10.1% | % Inhibition of Control Specific Binding (Mean n=2) [28]: 2.6% | residual activity [29]: 100% | residual activity [30]: 95% | residual activity [31]: 89% | residual activity [32]: 93% | residual activity [33]: 76% | residual activity [34]: 72% | residual activity [35]: 80% | residual activity [36]: 89% | residual activity [37]: 100% | residual activity [38]: 100% | % Inhibition of Control Specific Binding (Mean n=2) [39]: -1.1% | residual activity [40]: 93% | residual activity [41]: 85% | residual activity [42]: 74% | % Inhibition of Control Specific Binding (Mean n=2) [43]: 33.6% | residual activity [44]: 92% | % Inhibition of Control Specific Binding (Mean n=2) [45]: 16.2% | residual activity [46]: 91%
